{"source": "patent US20210205253A1", "about": "“Use Of Stearic Acid For Preventing Or Treating Pulmonary Fibrosis” (THE ASAN FOUNDATION, priority 2018, published 2021)", "key": {"[1]": {"tested_on": "primary fibroblasts isolated from lung tissues of patients with idiopathic pulmonary fibrosis", "experiment": "Collagen 1 and α-SMA expression in primary fibroblasts from IPF patients", "type": "cell-based, human", "settings": "80 μM stearic acid", "method": "In addition to the results in the Examples, the present inventors sought to verify the anti-fibrotic effect of stearic acid on fibroblasts derived from lung tissues in patients with idiopathic pulmonary fibrosis (IPF). For this purpose, after primary fibroblasts were isolated from lung tissues of the patients, and then the cells were treated with stearic acid at various concentrations for 24 hours, the expression levels of collagen 1 and α-SMA were measured (FIGS. 10A and 10B), fibroblasts obtained from 4 patients were treated with 80 μM stearic acid for 24 hours, and then the expression levels of collagen 1 and α-SMA were measured (FIG. 10C). In addition, after the expression of collagen type 1 and α-SMA was increased by inducing the fibrosis caused by TGF-β1 in patient-derived fibroblasts, the anti-fibrotic effect of stearic acid was verified (FIGS. 10D and 10E)."}, "[2]": {"tested_on": "Beas-2B human pulmonary epithelial cell line", "experiment": "E-cadherin expression in epithelial cells", "type": "cell-based", "settings": "40 μM stearic acid, 24 h", "method": "The present inventors examined the expression level of E-cadherin after treating Beas-2B, which is a human pulmonary epithelial cell line, with TGF-β1 and/or 40 μM stearic acid for 24 hours in order to examine the effects of stearic acid on epithelial cells. As a result, as illustrated in FIGS. 11A and 11B, it was confirmed that when Beas-2B was treated with 40 μM stearic acid, the expression of E-cadherin reduced by TGF-β1 was restored in Beas-2B cells. […] It was confirmed in FIG. 3B that when epithelial cells are treated with TGF-β1, the proliferation of epithelial cells was inhibited and the proliferation of epithelial cells was restored by stearic acid."}, "[3]": {"tested_on": "p-Smad2/3 and Smad7 in MRC-5 cells", "experiment": "p-Smad2/3 and Smad7 expression in fibroblasts", "type": "cell-based, human", "settings": "40 μM stearic acid pre-treatment 16 h, TGF-β1 1 h", "method": "(§1) The present inventors pre-treated a human pulmonary fibroblast cell line MRC-5 with 40 μM stearic acid for 16 hours, treated the MRC-5 cells with TGF-β1 for 1 hour, and then examined the expression levels of p-Smad2/3 and Smad7 in order to elucidate the anti-fibrotic mechanism of stearic acid in human pulmonary fibroblasts (FIGS. 12A and 12B). Further, to investigate the effect of stearic acid on the production of reactive oxygen species (ROS), MRC-5 cells were pre-treated with 40 μM stearic acid for 16 hours, and cells treated with TGF-β1 for 1 hour were stained with DCF-DA and analyzed by FACS (FIG. 12C). Furthermore, MRC-5 cells were pre-treated with 5 mM N-acetylcysteine (NAC), which is an antioxidant, for 1 hour and treated with TGF-β1 for 1 hour, and then the expression of p-Smad2/3 was examined (FIG. 12D)."}, "[4]": {"tested_on": "reactive oxygen species in MRC-5 cells", "experiment": "ROS measurement (DCF-DA, FACS)", "type": "cell-based, human", "settings": "40 μM stearic acid pre-treatment 16 h, TGF-β1 1 h", "method": "as §1"}, "[5]": {"tested_on": "pulmonary fibrosis induced by bleomycin", "experiment": "Combined stearic acid and pirfenidone in bleomycin pulmonary fibrosis animal model", "type": "in vivo, mice (C57BL/6J)", "settings": "3 mg/kg stearic acid, 300 mg/kg pirfenidone oral once every 2 days for 2 weeks; versus bleomycin group", "method": "In addition to the results of the above examples, the present inventors sought to confirm the anti-fibrotic effect by the combined treatment of stearic acid and pirfenidone in a pulmonary fibrosis animal model. For this purpose, 8-week-old mice (C57BL/6J) were anesthetized with 50 mg/kg […] and 5 mg/kg Rompun, followed by injection of bleomycin and saline into the trachea. From 7 days after administration of bleomycin, 3 mg/kg stearic acid, 300 mg/kg pirfenidone or the two drugs were orally administered at the same time once every 2 days for 2 weeks, and changes in mouse body weight were measured up to 21 days after administration of bleomycin."}, "[6]": {"settings": "primary fibroblasts from 4 patients with IPF, 24 h (FIG. 10C)"}}}
{"smiles": "CCCCCCCCCCCCCCCCCC(=O)O", "note": "[stearic acid]", "values": [{"measurement": "basal level expression of collagen 1", "setting": "[1]; 24 h (FIGS. 10A, 10B)", "value": "significantly reduced"}, {"measurement": "basal level expression of α-SMA", "setting": "[1]; 24 h (FIGS. 10A, 10B)", "value": "significantly reduced"}, {"measurement": "expression of collagen 1", "setting": "[1]; fibrosis induced by TGF-β1", "value": "significantly reduced"}, {"measurement": "expression of α-SMA", "setting": "[1]; fibrosis induced by TGF-β1", "value": "significantly reduced"}, {"measurement": "basal level expression of collagen 1", "setting": "[1]; [6]", "value": "significantly reduced"}, {"measurement": "basal level expression of α-SMA", "setting": "[1]; [6]", "value": "significantly reduced"}, {"measurement": "expression of E-cadherin reduced by TGF-β1", "setting": "[2]", "value": "restored"}, {"measurement": "expression of Smad 7 reduced by TGF-β1", "setting": "[3]", "value": "restored"}, {"measurement": "expression of p-Smad2/3 induced by TGF-β1", "setting": "[3]", "value": "inhibited"}, {"measurement": "level of reactive oxygen species induced by TGF-β1", "setting": "[4]", "value": "remarkably reduced"}, {"measurement": "level of hydroxyproline", "setting": "[5]", "value": "partially reduced"}]}
